In ChEMBL document CHEMBL1150036, “Functionalized aliphatic P2/P2 analogs of HIV-1 protease inhibitor DMP323” (Bioorg Med Chem Lett, 1997):
Activity calls are given as the source filed them. The rule behind the calls is not given here.

How the values were obtained:
[1] = target: Human immunodeficiency virus type 1 protease (Human immunodeficiency virus 1, UniProt Q72874); test: Inhibitory activity against HIV-1 protease
[2] = test system: Human immunodeficiency virus 1; test: Inhibition of viral RNA production in HIV-1-infected MT-2 cells.; type: functional; settings: Human immunodeficiency virus 1, MT2
MT2 = test: Antiviral activity assessed in a cell based assay measuring the inhibition of viral RNA production in HIV-1-infected MT-2 cells at concentrations of up to 50 ug/mL; not active; type: functional; settings: Homo sapiens

IC90 [2] | Compound | Ki [1] | IC90 (MT2)
365 nM | CCOC(=O)c1cccc(CN2C(=O)N(CCCCCO)[C@H](Cc3ccccc3)[C@H](O)[C@@H](O)[C@H]2Cc2ccccc2)c1 | 0.72 nM | 
 | O=C(NCCCCCN1C(=O)N(CCCCCNC(=O)c2ccc(F)cc2)[C@H](Cc2ccccc2)[C@H](O)[C@@H](O)[C@H]1Cc1ccccc1)c1ccc(F)cc1 | 18 nM | inactive
264 nM | O=C1N(CCCCCCO)[C@H](Cc2ccccc2)[C@H](O)[C@@H](O)[C@@H](Cc2ccccc2)N1Cc1ccc2ccccc2c1 | 1.7 nM | 
 | CS(=O)(=O)NCCCCCN1C(=O)N(CCCCCNS(C)(=O)=O)[C@H](Cc2ccccc2)[C@H](O)[C@@H](O)[C@H]1Cc1ccccc1 | 270 nM | inactive
398 nM | O=C1N(CCCCCO)[C@H](Cc2ccccc2)[C@H](O)[C@@H](O)[C@@H](Cc2ccccc2)N1Cc1ccccc1 | 0.68 nM | 
1510 nM | O=C1N(CCCCCCO)[C@H](Cc2ccccc2)[C@H](O)[C@@H](O)[C@@H](Cc2ccccc2)N1CCCCCCO | 0.47 nM | 
108 nM | O=C1N(CCCCCO)[C@H](Cc2ccccc2)[C@H](O)[C@@H](O)[C@@H](Cc2ccccc2)N1Cc1ccc(CO)cc1 | 0.1 nM | 
 | CNC(=O)NCCCCCN1C(=O)N(CCCCCNC(=O)NC)[C@H](Cc2ccccc2)[C@H](O)[C@@H](O)[C@H]1Cc1ccccc1 | 270 nM | inactive
 | O=C(NCCCCCN1C(=O)N(CCCCCNC(=O)c2ccccc2)[C@H](Cc2ccccc2)[C@H](O)[C@@H](O)[C@H]1Cc1ccccc1)c1ccccc1 | 59 nM | inactive
 | NCCCCCN1C(=O)N(CCCCCN)[C@H](Cc2ccccc2)[C@H](O)[C@@H](O)[C@H]1Cc1ccccc1 | 1250 nM | inactive
 | NCCCCN1C(=O)N(CCCCN)[C@H](Cc2ccccc2)[C@H](O)[C@@H](O)[C@H]1Cc1ccccc1 | 1250 nM | inactive
76 nM | O=C1N(CCCCCO)[C@H](Cc2ccccc2)[C@H](O)[C@@H](O)[C@@H](Cc2ccccc2)N1Cc1cccc(CO)c1 | 0.058 nM | 
 | COCCCCCN1C(=O)N(CCCCCOC)[C@H](Cc2ccccc2)[C@H](O)[C@@H](O)[C@H]1Cc1ccccc1 | 96 nM | inactive
3130 nM | O=C(Cc1cccnc1)NCCCCCN1C(=O)N(CCCCCNC(=O)Cc2cccnc2)[C@H](Cc2ccccc2)[C@H](O)[C@@H](O)[C@H]1Cc1ccccc1 | 8.9 nM | 
36 nM | O=C1N(CCCCCO)[C@H](Cc2ccccc2)[C@H](O)[C@@H](O)[C@@H](Cc2ccccc2)N1Cc1cccc(O)c1 | 0.081 nM | 
199 nM | O=C1N(CCCCCO)[C@H](Cc2ccccc2)[C@H](O)[C@@H](O)[C@@H](Cc2ccccc2)N1Cc1ccc2ccccc2c1 | 0.24 nM | 
17200 nM | O=C1N(CCCCCCCCO)[C@H](Cc2ccccc2)[C@H](O)[C@@H](O)[C@@H](Cc2ccccc2)N1CCCCCCCCO | 500 nM | 
 | CC(=O)NCCCCCN1C(=O)N(CCCCCNC(C)=O)[C@H](Cc2ccccc2)[C@H](O)[C@@H](O)[C@H]1Cc1ccccc1 | 350 nM | inactive
 | O=C(O)CCCCCN1C(=O)N(CCCCCC(=O)O)[C@H](Cc2ccccc2)[C@H](O)[C@@H](O)[C@H]1Cc1ccccc1 | 0.24 nM | inactive
 | O=C1N(CCCO)[C@H](Cc2ccccc2)[C@H](O)[C@@H](O)[C@@H](Cc2ccccc2)N1CCCO | 51 nM | inactive

Compound | IC90 [2] | Ki [1] | IC90 (MT2)
O=C(NCCCCCN1C(=O)N(CCCCCNC(=O)c2ccncc2)[C@H](Cc2ccccc2)[C@H](O)[C@@H](O)[C@H]1Cc1ccccc1)c1ccncc1 | 9900 nM | 16 nM | 
O=C1N(CCCCCO)[C@H](Cc2ccccc2)[C@H](O)[C@@H](O)[C@@H](Cc2ccccc2)N1CCCCCO | 953 nM | 1.4 nM | 
O=C1N(CCCCCO)[C@H](Cc2ccccc2)[C@H](O)[C@@H](O)[C@@H](Cc2ccccc2)N1CC1CC1 | 814 nM | 0.99 nM | 
O=C1N(CCCCCCCO)[C@H](Cc2ccccc2)[C@H](O)[C@@H](O)[C@@H](Cc2ccccc2)N1CCCCCCCO | 9010 nM | 34 nM | 
COC(=O)CCCCCN1C(=O)N(CCCCCC(=O)OC)[C@H](Cc2ccccc2)[C@H](O)[C@@H](O)[C@H]1Cc1ccccc1 | 30900 nM | 29 nM | 
O=C1N(CCCCO)[C@H](Cc2ccccc2)[C@H](O)[C@@H](O)[C@@H](Cc2ccccc2)N1CCCCO | 22700 nM | 42 nM | 
O=C(NCCCCCN1C(=O)N(CCCCCNC(=O)c2cccc(F)c2)[C@H](Cc2ccccc2)[C@H](O)[C@@H](O)[C@H]1Cc1ccccc1)c1cccc(F)c1 | 8770 nM | 14 nM | 
